Experimental data taken from patent publication US8343458B2, “Probes for in vivo targeting of active cysteine proteases” (The Board of Trustees of the Leland Stanford Junior …, priority 2008, dated 2013).

Assays:
[1] = test system: C2/C12 Ras tumors; test: Tumor uptake of 64Cu-labeled cathepsin probes in tumor-bearing mice (FIG. 7); format: in vivo, mouse; settings: 64Cu-labeled probe; for tumor uptake after 2 hrs / tumor uptake after 24 hours: IV
Experimental: Mice bearing tumors derived from […] C2/C12 Ras transformed cells were IV injected with ^64Cu-labeled probes. Images and total probe accumulation in tumors (arrows) is shown. For purposes of reproduction, the image is converted to black and white and reversed.
Essentially, two to four weeks prior to imaging MDA-MB 231 or C2C12/ras cells (a myoblast cell line wherein ras blocks differentiation) at 2×10^6 cell per spot were injected subcutaneous to the back of Balb-c nude mice.
Mice bearing tumors of similar size were injected intravenous via the tail vein with a DMSO/PBS solution of the compound to be tested. DMSO/PBS was locally injected directly into tumors in indicated mice, 15 minutes prior to probe injection. Fluorescent intensity as photons per second per centimeter square per steradian (p/s/cm2/sr) was recorded from living mice. Images were taken at various time points after probe injection using an IVIS 200 imaging system equipped with a Cy5.5 filter. Other protocols are known and may be adapted for administration and imaging in vivo using the present compounds. Another protocol for mouse studies is given in Joyce et al. “Cathepsin cysteine proteases are effectors of invasive growth and angiogenesis during multistage tumorigenesis,” Cancer Cell 5:443-452 (May 2004), at page 452.
In an initial attempt to make PET compatible cathepsin probes, a Cy5 tag was replaced with a group that could be used to bind ^64Cu. This was compound ^64Cu-DOTA-FFK-AOMK (GB172). […] Without wishing to be bound by any theory, it was reasoned that this poor accumulation in tumors was likely due to changes in the pharmacokinetic (PK) and cell permeability properties as the result of removal of the large, hydrophobic fluorophore molecule. While the improved uptake of the probe having both the macrocyclic chelator and the polyaromatic functionality (Cy5), it is thought that the combination of a bulky chelator and a substituted polyaromatic provided the probe molecule with provided a balance of mass, charge and hydrophobicity that gave the probe increased permeability through the outer lipid membranes of the cells. Following this logic, a version of GB-123 that retains the Cy5 fluorophore and also contains a site for attachment of the PET imaging tag was prepared. This was 64 Cu (GB170).

[2] = test system: cathepsins B and L; test: Labeling of intact tumor cells (SDS-PAGE, gel scan); format: cell-based, mouse (C2C12/Ras), human (MDA-MB-435)
Excerpt: FIG. 2 is a series of figures which, taken together, show the structure and function of representative in vivo probes. FIG. 2A is a schematic drawing of a chelator—conjugated probe, illustrating several component moieties. FIGS. 2B and 2C are gels showing expression and activity of enzyme targets of such probe, with a radionuclide label attached to the illustrated structure, showing the expression and activity of CB in a mouse myoblast cell line C2C12Ras and human breast cancer cell line MDA-MB-435. […] Cells were pretreated with JPM-OEt (50 μM) (+) or with control DMSO (0.1%) (−) for 2 h and labeled by addition of ^64Cu-Z-FK(DOTA)-AOMK (555 KBq, 15 μCi) to culture medium for 2 h. Cells were collected, lysed and analyzed after SDS-PAGE. The labeled proteases were visualized by scanning of the gel with a Typhoon 9410 imager.
Before applying the radiolabel probe in vivo we first tested the ability of the probe to label multiple tumor cell lines grown in vitro. We initially examined the labeling of the human breast cancer cell line MBA-MB-435 and a mouse myoblastoma cell line that had been transformed by overexpression of the ras oncogene (C2C12/Ras). Both of these cell lines were used for in vivo imaging studies with the NIRF-labeled cysteine cathepsin probes. To confirm earlier studies of these cells using the NIRF probes we labeled them with general Cy5-labeled probe GB123 (FIG. 1C). […] Labeling of the same cells with ^64Cu-Z-FK(DOTA)-AOMK confirmed that the DOTA produced a similar labeling pattern to that observed for the NIRF probe GB123.
C2C12/Ras and MDA-MB-435 cells (0.25 M each well) were seeded in a six-well plate one day before the study. Cells were pretreated with the general papain family protease inhibitor JPM-OEt (50 μM^28) or with control DMSO (0.1%) for 1 h and labeled by addition of ^64Cu-Z-FK(DOTA)-AOMK (555 KBq, 15 μCi) to culture medium for 2 h. Cells was then washed with PBS and lysed. Equal amounts of protein per lane were separated by 12% SDS-PAGE. […] The labeled bands were quantified with ImageJ 1.36b (public domain software from National Institute of Health).

## CC[N+]1=C(/C=C/C=C/C=C2\N(CCCCCC(=O)NCCCC[C@H](NC(=O)[C@H](Cc3ccccc3)NC(=O)[C@H](Cc3ccccc3)NC(=O)CN3CCN(CC(=O)O)CCN(CC(=O)O)CCN(CC(=O)O)CC3)C(N)=O)c3ccc(S(=O)(=O)O)cc3C2(C)C)C(C)(C)c2cc(S(=O)(=O)O)ccc21 [GB 173, DOTA-FFK(Cy5)-AOMK-Amide]
[1]
  tumor uptake after 2 hrs: 1.71 ± 0.08
  tumor uptake after 24 hours: 0.37 ± 0.13

## JPM-OEt
[2]; cells pretreated with 50 μM inhibitor, then labeled with 64Cu-Z-FK(DOTA)-AOMK
  Effect of inhibitor pretreatment on probe labeling of protease targets: complete loss of labeling

## CCN1C(=CC=CC=CC2=[N+](CCCCCC(=O)NCCCC[C@H](NC(=O)[C@H](Cc3ccccc3)NC(=O)OCc3ccccc3)C(=O)COC(=O)c3c(C)cccc3C)c3ccc(S(=O)(=O)O)cc3C2(C)C)C(C)(C)c2cc(S(=O)(=O)O)ccc21 [GB123]
[2]; cells labeled with Cy5-labeled probe
  Cathepsin B and L activity of C2C12/Ras relative to MDA-MB-435 cells by probe labeling: 7.4 fold

## CC[N+]1=C(/C=C/C=C/C=C2\N(CCCCCC(=O)NCCCC[C@H](NC(=O)[C@H](Cc3ccccc3)NC(=O)[C@H](Cc3ccccc3)NC(=O)CN3CCN(CC(=O)O)CCN(CC(=O)O)CCN(CC(=O)O)CC3)C(=O)COC(=O)c3c(C)cccc3C)c3ccc(S(=O)(=O)O)cc3C2(C)C)C(C)(C)c2cc(S(=O)(=O)O)ccc21 [GB 170, DOTA-FFK(Cy5)-AOMK]
[1]
  Tumor uptake in PET studies (in words): dramatically increased uptake in tumor tissues
  tumor uptake after 2 hrs: 3.17 ± 0.05
  tumor uptake after 24 hours: 1.56 ± 0.23

## Cc1cccc(C)c1C(=O)OCC(=O)[C@H](CCCCN)NC(=O)[C@H](Cc1ccccc1)NC(=O)[C@H](Cc1ccccc1)NC(=O)CN1CCN(CC(=O)O)CCN(CC(=O)O)CCN(CC(=O)O)CC1 [GB 172, DOTA-FFK-AOMK]
[1]
  Tumor uptake in PET studies (in words): overall probe uptake was very low
  tumor uptake after 2 hrs: 0.41 ± 0.07
  tumor uptake after 24 hours: 0.32 ± 0.04
